We go through one substance from patent US7655233B2 (priority 2005, dated 2010).

In the test the test system is Vesicular Stomatitis Virus.

Turning to Polysorbate 80, the “virus inactivation by excipient” value is listed as “no appreciable virus inactivation occurred”.
